Key:
[1] = tested on: CCI injured hippocampi; assay: Histological analysis of the hippocampus size after CCI; assay type: in vivo, rat; conditions: day 35, 10 mg/kg and 20 mg/kg, first injection 2 h after TBI
Description: (§1) CCI was performed with an electromagnetic impact device as described (MyNeurolab, St. Louis, Mo.; Brody et al, 2007). Anesthesized rats were subjected to a single right lateral CCI, with the following parameters impact centered 4.0 mm anterior to lambda and 4.5 mm […] of midline, within the craniotomy of the animal. The impact was set at a velocity of 4 m/s with a sustained depression of 200 ms, using a 5.0 mm tip.
Frozen sections were stained with cresyl violet. For each section analyzed, the size of the hippocampus was determined by first outlining all remaining tissue of each section taken at 500 μm intervals through the lesion (right hemisphere) or contra lateral hemisphere, thus providing a total tissue area (mm2) of the two hemispheres for each section. Then, the areas of sections were summed per hemisphere.

[2] = tested on: social isolated rats; assay: Novel object recognition test, social isolated animals, 1 h ITI; assay type: in vivo, rat; conditions: 10 mg/kg subcutaneously 1 h before task
Description: (§2) Cognitive dysfunction, including impaired recognition memory, are common features in depressed patients (Egeland et al., Scand. J. Psychol. 2005). The present experiment explored the ability of 3-methoxy-PREG (43B) administration to increase recognition memory retention in naive animals and to recover recognition memory deficits in animals submitted to the social isolation protocol. Rearing rats in isolation from the time of weaning and throughout adulthood can induce a series of hippocampal structural and molecular deficits paralled by behavioural alterations resembling a depressive-like state (Weiss and Feldon, Psychopharmacology 2001; Bianchi et al., EJN 2006). Recognition memory was assessed using the NOR test which is a two-trial test of recognition memory based on the spontaneous preference of rats for novelty (Ennaceur and Delacour, Behav. Brain. Res. 1988; Bianchi et al. EJN. 2006). Briefly, rats are placed in the open field arena for a 3 min period of habituation and then re-placed in their “home” cage for 1 min. The animals are then re-placed in the arena for the familiarization trial (T1) and allowed to explore two identical objects for 5 min. […] The ability of the animals to discriminate between the novel and the familiar object is then expressed as D2-INDEX: [novel object (sec)−familiar object (sec)]/[novel object (sec)+familiar object (sec)] […]

[3] = tested on: α-tubulin in rat hippocampus; assay: Microtubule dynamics in rat hippocampus (Tyr/Glu-Tub ratio, Acet-Tub); assay type: in vivo; conditions: 10 mg/kg subcutaneously, single administration
Description: Mean±SEM, n=6 per group. **P<0.01, *P<0.5 vs sesame oil.
The effects produced by neurosteroids were compared with those produced by acute administration of the antidepressant drug fluoxetine (selective serotonin reuptake inhibitor SSRI).
Neurosteroids and 3-Methoxy-PREG (43B) Levels

[4] = tested on: rats subjected to spinal cord compression; assay: Spinal cord compression model, BBB score; assay type: in vivo, rat; conditions: 12 mg/kg/day subcutaneous for 2 weeks; as of post-operation day 7
Description: FIG. 7: Effect of molecule 43B on locomotor recovery following spinal cord compression in rats. Animal locomotion was evaluated in a blind format during the 1-28 day post-operative period using the BBB score which evaluates the degree of paralysis (higher values correspond to better recovery). Statistical significance: * indicates p<0.001; ** indicates p<0.0001.
To determine the neuroprotective effects of the molecules tested, a spinal cord compression model is used. This model involves the total paralysis of the animals in the first few days following the operation. This period of paralysis is followed of a phase of approximately three weeks during which the animals partially recover their motor function. The study of this recovery using a simple and precise functional test based on observation of the animals (the BBB score) makes it possible to study the speed and the degree of recovery of the animals, with and without treatment.
Two groups of rats were subjected to spinal cord compression. Then, daily for 2 weeks, the animals received a subcutaneous injection containing either sesame oil alone (control group, n=20), or sesame oil containing molecule 43B (43B group, n=20; 12 mg/kg/day). The first injection was given 5 minutes after spinal cord compression. Locomotion of the animals, using BBB scores, was evaluated in a blind format on post-operation days 1, 4, 7, 14, 21, and 28. […]

[5] = Neurosteroids and 43B levels in rat plasma and hippocampus; conditions: 3 h after 10 mg/kg subcutaneously
[6] = tested on: PSD95; assay: Western blot of PSD95 in cortex and hippocampus after CCI; assay type: in vivo, rat; conditions: day 35, 20 mg/kg, first injection 2 h post-trauma, ipsilateral injured cortex and hippocampus, contralateral cortex
Description: as §1
Samples were analyzed by Western-blot at day 35 post-trauma (D35) to evaluate the effects of MAP4343 on: MAP2 (the target of MAP4343 and a modulator of microtubule function), the post-synaptic markers PSD95 and spinophilin, the pre-synaptic marker synaptophysin, and the axonal growth/integrity marker […].
Western blot was performed on cortex and hippocampus of TBI-injured animals receiving the first injection of MAP4343 (at 10 mg/kg or 20 mg/kg) or vehicle (sesame oil) 2 h after injury.
The expression level of various neuronal brain markers of plasticity was measured at day 35 post-trauma by western-blots in the cortex and hippocampus of left uninjured and right injured cerebral hemispheres of CCI traumatized animals receiving either vehicle (sesame oil, CCI-D0) or 3-methoxy-PREG (MAP4343) at 10 mg/kg (CCI-D1) or 20 mg/kg (CCI-D2), with first MAP4343 injection 2 h post-trauma.

[7] = tested on: Sprague Dawley rats; assay: Novel object recognition test, naive animals, 4 h ITI; assay type: in vivo, rat; conditions: 10 mg/kg subcutaneously immediately after T1
Description: as §2

[8] = tested on: 80 different CNS neurotransmitters receptors; assay: In vitro affinity screen on CNS receptors; assay type: binding; conditions: 10 μM; significant: inhibition higher than 50%
Description: MAP4343 has been screened for in vitro affinity to 80 different CNS neurotransmitters receptors using various validated binding assays.

Question: What does the source list for `CO[C@H]1CC[C@@]2(C)C(=CC[C@H]3[C@@H]4CC[C@H](C(C)=O)[C@@]4(C)CC[C@@H]32)C1` [3-methoxy-PREG, 3β-methoxy-pregna-5-ene-20-one]?
Answer: size of the injured hippocampus [1]: significantly increases the size of the injured hippocampus; discrimination between familiar and novel object [2]: efficiently discriminated between the familiar and the novel object; Acet-Tub (stable acetylated α-tubulin) [3]: significantly decreased; Tyr/Glu-Tub ratio ([3]; 3 h): significantly increased; locomotion, BBB score [4]: quite significantly higher than the control animals; conversion to PREG or PROG [5]: not converted back to PREG or metabolized to PROG; PSD95 expression [6]: increase in PSD95 expression; discrimination between novel and familiar object [7]: discriminated between the novel and the familiar object showing increased memory retention; affinity for tested CNS receptors [8]: no significant affinity for any tested receptor

From patent US9339508B2, “Use of 3-methoxy-pregnenolone for the preparation of a drug for treating a traumatic brain injury” (MAPREG, priority 2003, dated 2016)
